# Measurements as given in patent publication US12215133B2 (BrightGene Bio-Medical Technology Co., Ltd., priority 2021, dated 2025).
# Tests used:
# GIP receptor = biological target: T1, GIP receptor (Homo sapiens, UniProt P48546); assay: cAMP experiment, GIP receptor (CHO host cell line); format: cell-based; conditions: CHO host cells
# T1 construct: expressed in transfected cells; host or cells: CHO cell line
# T1 sequence (P48546 22-466): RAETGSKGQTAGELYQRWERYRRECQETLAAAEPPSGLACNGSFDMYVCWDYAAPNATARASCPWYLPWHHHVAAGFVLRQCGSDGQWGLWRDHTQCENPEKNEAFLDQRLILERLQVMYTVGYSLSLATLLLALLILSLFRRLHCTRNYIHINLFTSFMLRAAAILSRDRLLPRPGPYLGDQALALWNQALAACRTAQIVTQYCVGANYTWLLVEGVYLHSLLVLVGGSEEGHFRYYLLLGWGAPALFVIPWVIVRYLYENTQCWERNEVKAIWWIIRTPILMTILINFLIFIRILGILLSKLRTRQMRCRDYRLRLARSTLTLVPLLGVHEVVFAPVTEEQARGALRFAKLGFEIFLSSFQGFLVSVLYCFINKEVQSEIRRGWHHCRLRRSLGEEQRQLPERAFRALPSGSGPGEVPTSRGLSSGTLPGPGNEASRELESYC
# GLP-1 receptor = biological target: T2, GLP-1 receptor (Homo sapiens, UniProt P43220); assay: cAMP experiment, GLP-1 receptor (HEK293 host cell line); format: cell-based; conditions: HEK293 host cells
# T2 construct: expressed in transfected cells; host or cells: HEK293 cell line
# T2 sequence (P43220 24-463, species assumed): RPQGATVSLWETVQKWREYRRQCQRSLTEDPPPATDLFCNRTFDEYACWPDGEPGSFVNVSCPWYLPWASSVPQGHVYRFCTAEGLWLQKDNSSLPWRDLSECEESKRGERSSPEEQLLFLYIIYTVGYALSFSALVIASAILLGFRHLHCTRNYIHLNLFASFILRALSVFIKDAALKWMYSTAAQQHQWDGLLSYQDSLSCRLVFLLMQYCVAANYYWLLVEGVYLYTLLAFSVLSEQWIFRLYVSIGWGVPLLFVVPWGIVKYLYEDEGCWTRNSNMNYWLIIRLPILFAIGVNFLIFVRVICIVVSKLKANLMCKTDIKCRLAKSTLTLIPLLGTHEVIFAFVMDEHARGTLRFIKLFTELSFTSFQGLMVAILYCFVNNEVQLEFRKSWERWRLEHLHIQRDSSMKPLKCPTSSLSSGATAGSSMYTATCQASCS
structure (smiles),measurement,setting,value
"CC[C@H](C)[C@H](NC(=O)[C@H](CC(C)C)NC(=O)[C@H](Cc1c[nH]c2ccccc12)NC(=O)[C@H](CCC(N)=O)NC(=O)[C@@H](NC(=O)[C@H](Cc1ccccc1)NC(=O)[C@H](C)NC(=O)[C@H](CCCCN)NC(=O)[C@H](CCC(N)=O)NC(=O)[C@H](C)NC(=O)[C@@H](NC(=O)[C@H](CCCCNC(=O)COCCOCCOCCNC(=O)COCCOCCOCCNC(=O)CC[C@H](NC(=O)CCCCCCCCCCCCCCCCCCC(=O)O)C(=O)O)NC(=O)[C@H](CC(=O)O)NC(=O)[C@H](CC(C)C)NC(=O)C(C)(C)NC(=O)[C@@H](NC(=O)[C@H](CO)NC(=O)[C@H](Cc1ccc(O)cc1)NC(=O)[C@H](CC(=O)O)NC(=O)[C@H](CO)NC(=O)[C@@H](NC(=O)[C@H](Cc1ccccc1)NC(=O)[C@@H](NC(=O)CNC(=O)[C@H](CCC(=O)O)NC(=O)C(C)(C)NC(=O)[C@@H](N)Cc1ccc(O)cc1)[C@@H](C)O)[C@@H](C)O)[C@@H](C)CC)[C@@H](C)CC)C(C)C)C(=O)N[C@@H](C)C(=O)NCC(=O)NCC(=O)N1CCC[C@H]1C(=O)N[C@@H](CO)C(=O)N[C@@H](CO)C(=O)NCC(=O)N[C@@H](C)C(=O)N1CCC[C@H]1C(=O)N1CCC[C@H]1C(=O)N1CCC[C@H]1C(=O)N[C@@H](CO)C(N)=O [BGM125, reference compound]",EC50,GIP receptor,0.684 nM
same,EC50,GLP-1 receptor,0.0692 nM
